One data set relates to cytochrome c. Kind of data set: Western blot, cytochrome c. To be noted: HepG-2, 0, 15 and 30 μM, 24 h. The data set is classed as cell-based, human. The protocol:
(§1) HepG-2 cells were collected after treatments with Compound 1 (0, 15 and 30 μM) for 24 h and then lysed in ice-cold RIPA buffer (1×PBS, 1% NP-40, 0.5% sodium deoxycholate and 0.1% SDS) which containing 100 μg/mL PMSF, 5 μg/mL Aprotinin, 5 μg/mL Leupeptin, 5 μg/mL Pepstatin and 100 μg/mL NaF. After centrifugation at 12,000 rpm for 10 min, the protein in the supernatant was quantified by the Bradford method using Multimode varioscan instrument (Thermo Fischer Scientifics). 30 μg protein per lane was applied in 12% SDS polyacrylamide gel. After electrophoresis, the protein was transferred to a polyvinylidine difluoride (PVDF) membrane (Amersham Biosciences). The membrane was blocked in TBST containing 5% blocking powder (Santacruz) at room temperature for 2 h. The membrane was washed with TBST for 5 min, and primary antibody (Bax, Bcl-2, cytochrome c, caspase-9, -3) was added and incubated at 4°C overnight (O/N). After three washes in TBST, the membrane was cultivated with corresponding horseradish peroxidase-labeled secondary antibody (1:20000) (Santa Cruz) at room temperature for 1 h. Membranes were rinsed with TBST for three times, 15 min each, and the protein blots were visualized with chemiluminescence reagent (Thermo Fischer Scientifics Ltd.). The X-ray films were developed with developer and fixed with fixer solution.

A short description of the next data set: in vitro. The settings on record: human. Type of data set: cell-based. How it is done:
(§2) The cytotoxic effects of Compounds 1–3 were estimated in vitro against HepG-2, MCF-7 and T-84 tumor cell lines by Cell Counting Kit-8 assay. Briefly, the cells were seeded into 96-well plates in triplicate at an initial number of 5,000 cells per well and cultured at 37°C, 5% CO2 for 24h, then treated with 0, 15, 20, 25, 30 μM of samples for another 24h. Ten microliters of the kit reagent was added to each well, and 2 h after all plates were scanned by a microplate reader (Thermo Fisher Scientific) at 450 nm. Cell cytotoxicity was calculated on the basis of absorbency.

Another data set has as its system Bax. Kind of data set: Western blot, Bax. Type of data set: cell-based, human. To be noted: HepG-2, 15 and 30 μM, 24 h, compared with control. How it is done:
as §1

The test system of data set [1] is HepG-2 cells. The data set is described as follows: AO/EB staining. Type of data set: cell-based, human. The settings on record: 15 and 30 μM, 24 h. How it is done:
HepG-2 cells were seeded on a sterile cover slip in 6-well tissue culture plates at a concentration of 5 ×10^4 cell/mL in a volume of 2 mL. Following incubation, the medium was removed and replaced with fresh medium plus 10% fetal bovine serum and supplemented with concentrations of Compound 1 for 24 h. After the treatment period, the cover slip with monolayer cells was inverted on a grass slide with 10 μL of AO/EB stain ([…]). Fluorescence was read on a Nikon ECLIPSETE2000-S fluorescence microscope.

For the next data set, the system named is caspase-3. Kind of data set: Western blot, caspase-3. The settings on record: HepG-2, 15 and 30 μM, 24 h. Type of data set: cell-based, human. How it is done: as §1
For orientation: In western blotting, separated proteins are transferred to a membrane and probed.

Data set [2] deals with HepG-2 cells. The data set is described as follows: Mitochondrial membrane potential (JC-1) staining. Type of data set: cell-based, human. The settings on record: 15 μM, 24 h.
A further data set deals with T-84. The data set is described as follows: CCK-8 cytotoxicity assay, T-84. The settings on record: Homo sapiens, read-out: Cytotoxicity (IC50) T-84. The data set is classed as cell-based. How it is done: as §2
Data set [3] relates to HepG-2 cells. The data set is described as follows: Hoechst 33258 staining. The data set is classed as cell-based, human. To be noted: 15 and 30 μM, 24 h. How it is done:
HepG-2 cells grown on a sterile cover slip in 6-well plates were treated with Compound 1 for 24 h. The culture medium containing Compound was removed, and the cells were fixed in 4% paraformaldehyde for 10 min. After two PBS washes, the cells were stained with 0.5 mL of Hoechst 33258 (Beyotime, Haimen, China) for 5 min and again two PBS washes. The stained nuclei were viewed using a Nikon ECLIPSETE2000-S fluorescence microscope (OLYMPUS Co., Japan) under 350 nm excitation and 460 nm emissions.

The test system of another data set is MCF-7. Kind of data set: CCK-8 cytotoxicity assay, MCF-7. Type of data set: cell-based. To be noted: Homo sapiens, read-out: Cytotoxicity (IC50) MCF-7. How it is done:
as §2
A general note: Formazan colour is commonly taken as a measure of viable cells.

Another data set relates to HepG-2. Kind of data set: CCK-8 cytotoxicity assay, HepG-2. To be noted: for IC50: Homo sapiens, read-out: Cytotoxicity (IC50) HepG-2. Type of data set: cell-based, human. The protocol: as §2
The next data set has as its system Bcl-2. Kind of data set: Western blot, Bcl-2. Type of data set: cell-based, human. The settings on record: HepG-2, 15 and 30 μM, 24 h, compared with control. How it is done: as §1
Data set [4] relates to HepG-2 cells. The data set is described as follows: Annexin V-FITC/propidium iodide apoptosis analysis. Type of data set: cell-based, human. The settings on record: 24 h. The protocol:
The method for apoptosis analysis referred to the literature. Apoptosis was discriminated with the annexin V-FITC/propidium iodide test. Cells were seeded at 3 × 10^5/well in 10% FBS-DMEM into 6-well plates, and treated with Compound 1 with various concentrations. The cells were washed twice with cold Phosphate Buffered Saline (PBS) and then resuspended in 1 × Binding Buffer (0.1 M Hepes/NaOH (pH 7.4), 1.4 M NaCl, 25 mM CaCl2) at a concentration of 1 × 10^6 cells/mL. 100 μL of the solution (1 × 10^5 cells) was transferred to a 5 mL culture tube, and 5 μL of FITC Annexin V (BD, Pharmingen) and 5 μL of propidium iodide (PI) were added to each tube. The cells were gently vortexed and incubated at 25°C for 15 min in the dark. Then 200 μL of PBS was added to each tube. Analysis was performed with the system software (Cell Quest; BD Biosciences). The percentage of cells positive for PI and/or Annexin V-FITC was reported inside the quadrants. Lower left quadrant, viable cells (annexin V-/PI-); lower right quadrant, early apoptotic cells (annexin V+/PI-); upper right quadrant, late apoptotic cells (annexin V+/PI+); upper left quadrant, necrotic cells (annexin V-/PI+).

The test system of data set [5] is HepG-2 cells. The data set is described as follows: Intracellular ROS assay (DCFH-DA). The settings on record: 24 h, control 10.6%. Type of data set: cell-based, human. The protocol:
HepG-2 cells were seeded into 6-well plates for 24 h and subjected to various treatments. Then, the cells were cultured in a […] medium solution containing […] DCFH-DA (Beyotime, Haimen, China) at 37°C for 30 min in dark, and then with 3 times PBS washes. Cellular fluorescence was quantified under Nikon ECLIPSETE2000-S fluorescence microscope at 485 nm excitation and 538 nm emission.

The test system of a further data set is caspase-9. Kind of data set: Western blot, caspase-9. The settings on record: HepG-2, 15 and 30 μM, 24 h. The data set is classed as cell-based, human. The protocol: as §1

This note sets out measurements from article PMC5384777, “Three new C-27-carboxylated-lupane-triterpenoid derivatives from Potentilla discolor Bunge and their in vitro antitumor activities” (PLoS ONE, 2017).

Molecules are shown by their SMILES. “And” between values parts separate entries of the source, which are not always exact repeats. Identical values can stand only once. Like-named read-outs stand apart in the source and are kept apart here.

Consider `CC(C=O)C1CCC2(C)CCC3(C(=O)O)C(CCC4C5(C)CCC(O)C(C)(C)C5CCC43C)C12` (stereo not drawn) [Compound 1, 3α-hydroxy-19α-hydrogen-29-aldehyde-27-lupanoic acid], for which the melting point was 200 to 201 °C and 201 to 202 °C. Besides, the “cytochrome c level in the cytosol” value with cytochrome c is recorded as “gradually improved”. Moreover, in “in vitro”, the viability at 24 h, 35 µM was above 90%. Besides, the Bax level result with Bax is reported as “significant increase”. For the same molecule, in the data set on HepG-2 cells [1], the “apoptosis by AO/EB staining” value is recorded as “able to induce apoptosis”. Besides, in the data set with caspase-3, the “cleavage of caspase-3” value is listed as “significantly induced cleavage”. Moreover, the “ΔΨm reduced to, of control” value in the data set on HepG-2 cells [2] was 69.1%. The IC50 with T-84 (T84, 24 h) came to 27.9 ± 1.96 µM. Besides, the “apoptotic cells by Hoechst 33258 staining” value with HepG-2 cells [3] was “apoptotic cells increased gradually in a dose-dependent manner”. Besides, the IC50 in the data set on MCF-7 (MCF7, 24 h) turned out to be 30.8 ± 1.88 µM. Further, the “survival rate of HepG-2” value with HepG-2 (35 μM) stood at 9.50%. The IC50 with HepG-2 (HepG2, 24 h) is 17.8 ± 1.21 µM. Further, in the data set with Bcl-2, the “expression of Bcl-2” value is listed as “inhibition on the expression”. Moreover, in the data set on HepG-2 cells [4] (15 μM), the “early apoptosis rate (annexin V+/PI-, LR)” value (from here on “early apoptosis rate”) came to 6.96% and the “late apoptosis rate (annexin V+/PI+, UR)” value turned out to be 4.27%. The “late apoptosis rate (annexin V+/PI+, UR)” value in the data set with HepG-2 cells [4] (20 μM) was found to be 10.61%. For the same molecule, in the data set on HepG-2 cells [4] (25 μM), the “early apoptosis rate” value worked out at 20.05% and the “late apoptosis rate (annexin V+/PI+, UR)” value is 14.30%. In addition, in the data set on HepG-2 cells [4] (30 μM), the “early apoptosis rate” value came to 23.69% and the “late apoptosis rate (annexin V+/PI+, UR)” value is 22.93%. The “early apoptosis rate” value in the data set with HepG-2 cells [4] is 16.14%. In the data set with HepG-2 cells [4] (Homo sapiens, HepG2, 15 μM, read-out: viable cells (annexin V-/PI-, LL)), the viability at 15 µM came out at 88.7%. For the same molecule, in the data set on HepG-2 cells [4] (Homo sapiens, HepG2, 20 μM, read-out: viable cells (annexin V-/PI-, LL)), the viability at 20 µM amounted to 72.9%. Besides, the viability at 25 µM with HepG-2 cells [4] (Homo sapiens, HepG2, 25 μM, read-out: viable cells (annexin V-/PI-, LL)) was 64.8%. The viability at 30 µM with HepG-2 cells [4] (Homo sapiens, HepG2, 30 μM, read-out: viable cells (annexin V-/PI-, LL)) was 52%. In addition, the ROS level in the data set on HepG-2 cells [5] (15 μM) is 23.5%. The ROS level with HepG-2 cells [5] (30 μM) is recorded as 46.8%. Also, the “cleavage of caspase-9” value in the data set on caspase-9 is “significantly induced cleavage”.

Regarding `CC(C=O)[C@@H]1CC[C@]2(C)CC[C@]3(C(=O)O)C(CCC4[C@@]5(C)CC[C@@H](O)C(C)(C)C5CC[C@]43C)C12` (stereo partly drawn) [Compound 2, 3α-hydroxy-19β-hydrogen-29-aldehyde-27-lupanoic acid], the IC50 was determined as 27.9 ± 0.99 µM in the data set with T-84 (T84, 24 h); 31 ± 1.83 µM in the data set with MCF-7 (MCF7, 24 h); 18.2 ± 1.94 µM in the data set on HepG-2 (HepG2, 24 h).

Consider `CC(=O)OC1CCC2(C)C(CCC3(C)C2CCC2C4C(C(C)C=O)CCC4(C)CCC23C(=O)O)C1(C)C` (stereo not drawn) [Compound 3, 3α-acetyl-19α-hydrogen-29-aldehyde-27-lupanoic acid], for which the melting point lay within 200 to 201 °C. For the same molecule, the IC50 in the data set on T-84 (T84, 24 h) came out at 40.6 ± 3.64 µM. Besides, the IC50 in the data set with MCF-7 (MCF7, 24 h) stood at 35.4 ± 1.52 µM. Also, the IC50 in the data set with HepG-2 (HepG2, 24 h) was found to be 25.3 ± 1.87 µM.

Regarding `O=C1CCC[C@@H]2[C@H]3CCCN4CCC[C@@H](CN12)[C@@H]34` [Matrine, reference compound], the IC50 in the data set with T-84 (T84, CCK-8, 24 h treatment, n = 3) was 32.8 ± 2.95 µM; in the data set on MCF-7 (MCF7, CCK-8, 24 h treatment, n = 3), 35.5 ± 2.92 µM; in the data set on HepG-2 (HepG2, CCK-8, 24 h treatment, n = 3), 30.9 ± 2.28 µM.

The term IC50 denotes the midpoint of a concentration-inhibition curve. Usually melting point stands for the temperature, or range, at which the solid turns liquid.
